Laboratory results: ChEMBL document CHEMBL1629514, “Synthesis, biological activity, and evaluation of the mode of action of novel antitubercular benzofurobenzopyrans substituted on A ring” (Eur J Med Chem, 2010)
In brackets after ≈: the same amount, converted by molar mass.

System: Mycobacterium tuberculosis
Experiment: Antimycobacterial activity against Mycobacterium bovis BCG after 6 days by Microdilution Resazurin assay
Type: functional
Details: variant bovis BCG, 144 h

Row | Compound | MIC95 [µM]
1 | CC(=O)c1ccc2oc3ccc4c(c3c2c1)CCC(C)(C)O4 | > 340
2 | CC1(C)C=Cc2c(ccc3oc4c(Cl)cccc4c23)O1 | > 350
3 | CC1(C)C=Cc2c(ccc3oc4cc(Br)ccc4c23)O1 | 150 (≈ 49.4 µg/mL)
4 | CC1(C)C=Cc2c(ccc3oc4ccc(Cl)cc4c23)O1 | 100 (≈ 28.5 µg/mL)
5 | CC1(C)C=Cc2c(ccc3oc4cccc(Cl)c4c23)O1 | > 350
6 | CC1(C)C=Cc2c(ccc3oc4c(O)cccc4c23)O1 | 94 (≈ 25 µg/mL)
7 | CC1(C)C=Cc2c(ccc3oc4cc(O)ccc4c23)O1 | 94 (≈ 25 µg/mL)
8 | CC1(C)C=Cc2c(ccc3oc4ccc(O)cc4c23)O1 | 79 (≈ 21 µg/mL)
9 | CC1(C)C=Cc2c(ccc3oc4cccc(O)c4c23)O1 | 94 (≈ 25 µg/mL)
10 | CC1(C)CCc2c(ccc3oc4ccc(O)cc4c23)O1 | 140 (≈ 37.6 µg/mL)
11 | COc1cccc2c1oc1ccc3c(c12)C=CC(C)(C)O3 | 89 (≈ 24.9 µg/mL)
12 | COc1ccc2c(c1)oc1ccc3c(c12)C=CC(C)(C)O3 | > 360
13 | COc1ccc2oc3ccc4c(c3c2c1)C=CC(C)(C)O4 | 89 (≈ 24.9 µg/mL)
14 | COc1cccc2oc3ccc4c(c3c12)C=CC(C)(C)O4 | 89 (≈ 24.9 µg/mL)
15 | COc1ccc2oc3cc4c(cc3c2c1)OC(C)(C)C=C4 | 89 (≈ 24.9 µg/mL)
16 | CC1(C)C=Cc2c(ccc3c2oc2ccc4c(c23)C=CC(C)(C)O4)O1 | > 300
17 | CC1(C)C=Cc2c(ccc3oc4cc(-c5ccc6c(c5)oc5ccc7c(c56)C=CC(C)(C)O7)ccc4c23)O1 | > 200
18 | CC1(C)C=Cc2c(ccc3oc4ccccc4c23)O1 | 100 (≈ 25 µg/mL)
19 | NNC(=O)c1ccncc1 [ISONIAZID] | 4.4 (≈ 0.603 µg/mL)
